What all share (assay type): functional
In assay [1] the test system is Candida albicans. As to the kind of experiment: Antifungal activity against Candida albicans assessed as reduction in fungal cell growth incubated for 48 hrs by broth microdilution susceptibility method.
The test system of assay [2] is Candida albicans. Nature of the assay: Antifungal activity against Candida albicans assessed as reduction in fungal cell growth incubated for 24 and 72 hrs by cup plate method.
For another assay, the system named is Aspergillus flavus. As to the kind of experiment: Antifungal activity against Aspergillus flavus assessed as reduction in fungal cell growth incubated for 24 and 72 hrs by cup plate method.
Another assay concerns Fusarium oxysporum. As to the kind of experiment: Antifungal activity against Fusarium oxysporum assessed as reduction in fungal cell growth incubated for 24 and 72 hrs by cup plate method.

Each structure is given as a SMILES string. Values after ≈ are worked out from the molar mass of the structure shown.

For `O=C1CC(=O)N(c2ccc(Cl)cc2)C(=S)N1/N=C/c1cc2ccccc2n2nnnc12`, the minimum inhibitory concentration (MIC) with Candida albicans [1] is at least 100 µg/mL.

Regarding `CCOC(=O)C(C#N)C(c1cc2ccc(CC)cc2n2nnnc12)P(=O)(OCC)OCC` (centres undefined), the MIC in the assay with Candida albicans [2], in the assay on Aspergillus flavus and in the assay on Fusarium oxysporum was 10 to 25 µg/mL (≈ 21.8 to 54.4 µM) in each case.

For the molecule `COc1ccc2c(c1)cc(/C=C/C(=O)c1cc(Br)ccc1O)c1nnnn12`, the MIC in the assay with Candida albicans [2], with Aspergillus flavus and in the assay with Fusarium oxysporum was 25 to 100 µg/mL (≈ 58.8 to 235 µM) in each case.

Regarding `O=C1/C(=C/c2ccccc2)C(=O)N(c2ccccc2)C(=S)N1/N=C/c1cc2ccccc2n2nnnc12`, the minimal inhibitory concentration (MIC) with Candida albicans [1] is at least 100 µg/mL.

As to `Cc1ccc(N2C(=O)CC(=O)N(/N=C/c3cc4ccccc4n4nnnc34)C2=S)cc1`, in the assay on Candida albicans [1], the MIC is at least 100 µg/mL.

On to `O=C1CC(=O)N(c2ccccc2)C(=S)N1/N=C/c1cc2ccccc2n2nnnc12`, for which the minimal inhibitory concentration (MIC) with Candida albicans [1] is at least 100 µg/mL.

`CN(C)c1ccc(/C=C2/C(=O)N(/N=C/c3cc4ccccc4n4nnnc34)C(=S)N(c3ccc(Cl)cc3)C2=O)cc1`: in the assay on Candida albicans [1], the MIC is at least 100 µg/mL.

Take `CCOC(=O)C(C#N)C(c1cc2c(OC)cccc2n2nnnc12)P(=O)(OCC)OCC` (centres undefined): the MIC was 10 µg/mL (≈ 21.7 µM) in the assay with Candida albicans [2], 10 µg/mL (≈ 21.7 µM) with Aspergillus flavus and 10 to 25 µg/mL (≈ 21.7 to 54.2 µM) with Fusarium oxysporum.

For the molecule `O=C(/C=C/c1cc2ccccc2n2nnnc12)c1cc(Br)ccc1O`, the MIC in the assay on Candida albicans [2], in the assay with Aspergillus flavus and in the assay on Fusarium oxysporum was 25 to 100 µg/mL (≈ 63.3 to 253 µM) each time.

Turning to `CN(C)c1ccc(/C=C2/C(=O)N(/N=C/c3cc4ccccc4n4nnnc34)C(=S)N(c3ccccc3)C2=O)cc1`, the MIC in the assay on Candida albicans [1] is at least 100 µg/mL.

In the case of `COc1ccc2c(c1)cc(C1CC(c3cc(Br)ccc3O)=NN1)c1nnnn12` (centres undefined), the minimum inhibitory concentration (MIC) in the assay on Candida albicans [2], with Aspergillus flavus and in the assay on Fusarium oxysporum was 25 to 100 µg/mL (≈ 56.9 to 228 µM) throughout.

`CCOC(=O)C(C#N)C(c1cc2cc(OC)ccc2n2nnnc12)P(=O)(OCC)OCC` (centres undefined): the minimum inhibitory concentration (MIC) in the assay with Candida albicans [2], with Aspergillus flavus and with Fusarium oxysporum was 10 to 25 µg/mL (≈ 21.7 to 54.2 µM) throughout.

On to `CCOC(=O)C(C#N)C(c1cc2ccc(OC)cc2n2nnnc12)P(=O)(OCC)OCC` (centres undefined), for which the MIC in the assay on Candida albicans [2], with Aspergillus flavus and in the assay with Fusarium oxysporum was 10 to 25 µg/mL (≈ 21.7 to 54.2 µM) in each case.

On to `Cc1ccc(N2C(=O)/C(=C\c3ccc(N(C)C)cc3)C(=O)N(/N=C/c3cc4ccccc4n4nnnc34)C2=S)cc1`, for which the MIC in the assay on Candida albicans [1] was at least 100 µg/mL.

For `CCOC(=O)C(C#N)C(c1cc2c(C)cccc2n2nnnc12)P(=O)(OCC)OCC` (centres undefined), the minimum inhibitory concentration (MIC) in the assay with Candida albicans [2], in the assay with Aspergillus flavus and in the assay with Fusarium oxysporum was 10 to 25 µg/mL (≈ 22.5 to 56.1 µM) throughout.

For the molecule `S=C1N=C(c2ccc(Cl)cc2)CC(c2cc3ccccc3n3nnnc23)N1` (centres undefined), in the assay on Candida albicans [1], the minimal inhibitory concentration (MIC) is at least 100 µg/mL.

Regarding `CCOC(=O)C(C#N)C(c1cc2c(OCC)cccc2n2nnnc12)P(=O)(OCC)OCC` (centres undefined), the MIC in the assay with Candida albicans [2], in the assay with Aspergillus flavus and in the assay with Fusarium oxysporum was 10 to 25 µg/mL (≈ 21 to 52.6 µM) throughout.

Turning to `Cc1cccc2c1cc(/C=C/C(=O)c1cc(Br)ccc1O)c1nnnn12`, the minimum inhibitory concentration (MIC) in the assay with Candida albicans [2], in the assay on Aspergillus flavus and with Fusarium oxysporum was 25 to 100 µg/mL (≈ 61.1 to 244 µM) in each case.

For the molecule `COc1cccc2c1cc(C1CC(c3cc(Br)ccc3O)=NN1)c1nnnn12` (centres undefined), the MIC with Candida albicans [2], with Aspergillus flavus and with Fusarium oxysporum was 25 to 100 µg/mL (≈ 56.9 to 228 µM) throughout.

As to `CCOC(=O)C(C#N)C(c1cc2ccccc2n2nnnc12)P(=O)(OCC)OCC` (centres undefined), the minimum inhibitory concentration (MIC) with Candida albicans [2], in the assay on Aspergillus flavus and in the assay with Fusarium oxysporum was 10 to 25 µg/mL (≈ 23.2 to 58 µM) throughout.

For the molecule `S=C1N=C(c2ccc(Br)cc2)CC(c2cc3ccccc3n3nnnc23)N1` (centres undefined), the minimum inhibitory concentration (MIC) in the assay on Candida albicans [1] is at least 100 µg/mL.

`Cc1ccc2c(c1)cc(C1CC(c3cc(Br)ccc3O)=NN1)c1nnnn12` (centres undefined): the MIC with Candida albicans [2], with Aspergillus flavus and in the assay on Fusarium oxysporum was 25 to 100 µg/mL (≈ 59.1 to 236 µM) each time.

With `O=C1/C(=C/c2ccccc2)C(=O)N(c2ccc(Cl)cc2)C(=S)N1/N=C/c1cc2ccccc2n2nnnc12`, in the assay with Candida albicans [1], the MIC is at least 100 µg/mL.

(Values after ChEMBL document CHEMBL4393657, “Tetrazole hybrids and their antifungal activities” (2019).)
